Data taken from patent US20130040935A1, “CYCLIC KETO-ENOLS FOR THERAPY” (BAYER INTELLECTUAL PROPERTY GMBH, priority 2010, published 2013).
pIC50: −log10 of the molar value. Like-named read-outs stand apart in the source and are kept apart here.

Assays:
[1] = molecular target: T1, human ACC1 (acetyl-coenzyme A carboxylase alpha transcript variant 1) (Homo sapiens, UniProt Q13085); test: Human ACC1 enzyme assay, Assay B1 (ADP-Glo); format: biochemical
T1 construct: FLAG (C); made in house; host or cells: baculovirus-infected insect cells (Hi5)
Protocol: (§3) Essentially, the enzyme activity is measured by quantifying the adenosine diphosphate (ADP) formed as a byproduct of the enzyme reactions using the ADP-Glo™ detection system from Promega. In this test, initially the adenosine triphosphate (ATP) not consumed in the enzyme reaction is converted quantitatively with an adenylate cyclase (“ADP-GLO reagent”) into cAMP, the adenylate cyclase is then stopped and (“kinase detection reagent”) the ADP formed is subsequently converted into ATP, which is converted in a luciferase-based reaction into a glow luminescence signal.
The concentration of the hACC1 was adapted to the respective activity of the enzyme and adjusted such that the assay operated in the linear range. […] The amount of light emitted was taken as a measure for the amount of ADP formed and thus for the enzyme activity of the hACC1.

[2] = system: malonyl-CoA in a tumour (human MCF-7 breast cancer cells); test: Mode-of-action experiment: intratumour malonyl-CoA in MCF-7 tumours after oral administration; format: in vivo, female nude mice (NMRI-nude (nu/nu)); details: Mus musculus, after 7 h
Protocol: Mode-of-Action Experiment
Prior to the determination of the activity in the MCF-7 model, some of the test substances were examined in a “mode of action” experiment. The principle of this experiment is that short-term application of a test substance capable of inhibiting ACC1 and/or ACC2 in a living organism after oral administration reduces malonyl-CoA in a tumour. To this end, in the experiment 2 million human MCF-7 breast cancer cells were injected subcutaneously into female nude mice (NMRI-nude (nu/nu) mice, Taconic M&B A/S, 1 day beforehand administration of a pellet for the release of oestrogen over a period of at least 60 days). Once the tumour extended to an area of about 60-70 mm^2, the test substance was administered orally over a period of 1-3 days, and at defined points in time the intratumour content of malonyl-CoA was then determined and compared to the vehicle control. The method is described in Anal Chem 2008 Aug. 1; 80(15):5736-42. Epub 2008 Jul. 9.).

MCF7 = test: Cell proliferation assay (CellTiter-Glo, 96 h), MCF7; format: cell-based; details: Homo sapiens
Procedure, shortened: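 CellTiter-Glo luminescence measured at t=0 (after overnight attachment) and after 96 h compound exposure at 37° C. Growth inhibition in percent calculated from t=0-corrected signals of treated versus untreated wells. Seeding density 2000-5000 cells/well, line-dependent.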

MDA-MB-436 = test: Cell proliferation assay (CellTiter-Glo, 96 h), MDA-MB-436; format: cell-based; details: Homo sapiens
Protocol: (§1) In accordance with the invention, the substances were tested in cell-based assays for the ability of the substances of inhibiting tumour cell proliferation after a 96-hour incubation with the substance. Cell viability was tested using the CellTiter-Glo® luminescent cell viability assay (Promega). The cells were sown at a density of 2000-5000 cells/well (depending on the cell line) in 100 μl growth medium on 96-well microtitre plates. For each cell line examined, cells were sown on a separate plate to determine the luminescence at t=0 hours and t=96 hours. After overnight incubation at 37° C., the luminescence values for the t=0 samples were determined. The dose plates for the t=96 hours points in time were treated with substances diluted with growth medium. The cells were then incubated at 37° C. for 96 hours, and the luminescence values for the t=96 hours sample were then determined. For data analysis, the t=0 values were subtracted from the t=96 hour values for treated and untreated samples. The differences in luminescence in percent between substance-treated samples and control values were used to determine the growth inhibition in percent.
(§2) The substances were tested in the following cell lines which represent the stated indications in an exemplary manner: […]

MDA-MB-468 = test: Cell proliferation assay (CellTiter-Glo, 96 h), MDA-MB-468; format: cell-based; details: Homo sapiens
Protocol: as §1, §2

HCC-1937 = test: Cell proliferation assay (CellTiter-Glo, 96 h), HCC-1937; format: cell-based; details: Homo sapiens, HCC1937
Protocol: as §1, §2

Miapaca = test: Cell proliferation assay (CellTiter-Glo, 96 h), Miapaca; format: cell-based; details: Homo sapiens, MIA PaCa-2
Protocol: as §1, §2

[3] = molecular target: human ACC2 (acetyl-coenzyme A carboxylase 2) (Homo sapiens, UniProt O00763); test: Human ACC2 enzyme assay, Assay B2 (ADP-Glo);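 further: human ACC2 activity read as ADP product, detected by luciferase glow luminescence after residual ATP removal, enzyme near 2 ng/µl in linear range, detection steps at 22 °C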
Chain of human ACC2 (acetyl-coenzyme A carboxylase 2) (O00763 27-2458 limits assumed): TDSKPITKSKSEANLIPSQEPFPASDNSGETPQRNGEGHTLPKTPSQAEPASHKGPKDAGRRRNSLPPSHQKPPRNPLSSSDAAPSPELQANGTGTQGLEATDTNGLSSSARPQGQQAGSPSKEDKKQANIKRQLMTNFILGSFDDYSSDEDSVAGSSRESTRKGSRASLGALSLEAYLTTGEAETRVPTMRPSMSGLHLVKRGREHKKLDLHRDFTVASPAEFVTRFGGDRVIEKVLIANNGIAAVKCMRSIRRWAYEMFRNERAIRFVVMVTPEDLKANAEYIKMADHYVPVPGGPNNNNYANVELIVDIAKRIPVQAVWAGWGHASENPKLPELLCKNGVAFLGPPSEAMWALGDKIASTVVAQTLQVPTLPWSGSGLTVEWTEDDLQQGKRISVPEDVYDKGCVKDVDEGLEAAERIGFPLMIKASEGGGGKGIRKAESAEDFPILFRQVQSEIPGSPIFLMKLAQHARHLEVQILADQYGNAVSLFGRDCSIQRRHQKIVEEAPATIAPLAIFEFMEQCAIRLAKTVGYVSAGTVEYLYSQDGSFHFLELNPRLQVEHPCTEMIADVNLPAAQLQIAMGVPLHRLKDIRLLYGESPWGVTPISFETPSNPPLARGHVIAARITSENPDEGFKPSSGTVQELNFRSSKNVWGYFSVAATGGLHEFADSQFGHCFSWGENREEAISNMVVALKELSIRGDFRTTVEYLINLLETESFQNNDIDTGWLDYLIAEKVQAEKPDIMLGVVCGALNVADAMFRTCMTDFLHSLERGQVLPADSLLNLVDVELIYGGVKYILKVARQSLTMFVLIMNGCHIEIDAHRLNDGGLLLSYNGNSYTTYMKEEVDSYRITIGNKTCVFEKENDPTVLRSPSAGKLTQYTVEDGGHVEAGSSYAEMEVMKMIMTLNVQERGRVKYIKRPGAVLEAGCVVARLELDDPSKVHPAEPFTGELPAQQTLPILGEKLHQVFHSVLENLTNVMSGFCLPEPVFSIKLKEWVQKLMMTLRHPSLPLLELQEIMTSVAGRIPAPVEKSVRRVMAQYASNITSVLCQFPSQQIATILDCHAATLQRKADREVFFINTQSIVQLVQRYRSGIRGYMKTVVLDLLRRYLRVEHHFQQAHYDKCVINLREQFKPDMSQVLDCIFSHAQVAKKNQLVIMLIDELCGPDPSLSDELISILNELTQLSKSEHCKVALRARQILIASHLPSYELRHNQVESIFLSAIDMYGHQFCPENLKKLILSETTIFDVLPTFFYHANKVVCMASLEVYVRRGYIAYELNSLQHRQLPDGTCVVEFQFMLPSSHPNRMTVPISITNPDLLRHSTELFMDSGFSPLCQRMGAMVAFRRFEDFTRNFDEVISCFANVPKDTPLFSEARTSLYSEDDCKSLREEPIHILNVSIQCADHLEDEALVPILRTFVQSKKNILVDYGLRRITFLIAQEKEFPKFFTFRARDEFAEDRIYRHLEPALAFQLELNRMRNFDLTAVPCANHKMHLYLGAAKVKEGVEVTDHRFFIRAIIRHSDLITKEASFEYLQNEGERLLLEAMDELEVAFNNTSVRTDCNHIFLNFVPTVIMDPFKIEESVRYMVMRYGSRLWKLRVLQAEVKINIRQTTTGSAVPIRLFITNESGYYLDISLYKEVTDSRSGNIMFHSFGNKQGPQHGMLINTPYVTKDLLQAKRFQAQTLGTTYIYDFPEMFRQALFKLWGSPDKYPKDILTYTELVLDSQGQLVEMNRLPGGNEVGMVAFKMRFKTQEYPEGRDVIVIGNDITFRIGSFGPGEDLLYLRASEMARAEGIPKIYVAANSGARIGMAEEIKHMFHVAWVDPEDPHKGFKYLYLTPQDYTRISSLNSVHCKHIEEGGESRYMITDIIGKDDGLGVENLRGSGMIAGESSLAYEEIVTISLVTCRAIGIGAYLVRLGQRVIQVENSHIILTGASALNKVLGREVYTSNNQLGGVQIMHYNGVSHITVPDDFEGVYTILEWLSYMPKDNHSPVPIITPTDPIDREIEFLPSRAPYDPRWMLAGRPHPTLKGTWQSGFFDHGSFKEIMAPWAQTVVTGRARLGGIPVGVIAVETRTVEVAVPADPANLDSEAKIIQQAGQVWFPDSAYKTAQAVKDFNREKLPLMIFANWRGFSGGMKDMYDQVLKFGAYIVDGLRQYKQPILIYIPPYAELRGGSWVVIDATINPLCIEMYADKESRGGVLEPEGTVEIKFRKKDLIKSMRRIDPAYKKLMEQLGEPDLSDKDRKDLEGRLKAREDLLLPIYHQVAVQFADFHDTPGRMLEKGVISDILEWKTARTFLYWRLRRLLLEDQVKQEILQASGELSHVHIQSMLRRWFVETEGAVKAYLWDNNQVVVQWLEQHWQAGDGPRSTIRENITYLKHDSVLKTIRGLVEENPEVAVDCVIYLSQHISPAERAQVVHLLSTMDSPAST
Protocol: The hACC2-inhibitory action of the substances of the present invention was measured in the hACC2 assay described in the paragraphs below.
as §3
The concentration of the hACC2 was adapted to the respective activity of the enzyme and adjusted such that the assay operated in the linear range. Typical concentrations were in the range of 2 ng/μl. […] The amount of light emitted was taken as a measure for the amount of ADP formed and thus for the enzyme activity of the hACC2.

KM12 = test: Cell proliferation assay (CellTiter-Glo, 96 h), KM12; format: cell-based; details: Homo sapiens, 96-hour incubation
Protocol: as §1, §2

recombinant human ACC1 = recombinant human ACC1 (Homo sapiens, UniProt Q13085); test: Human ACC1 enzyme assay, Assay A1 (HTRF ADP immunoassay);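 further: ADP generated by the enzyme quantified via competitive time-resolved FRET, read as europium cryptate to d2 energy transfer after 1 h at 22 °C with labelled ADP tracer and anti-ADP antibody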
[4] = molecular target: acetyl-CoA carboxylase 2 (ACC2) (Homo sapiens, UniProt O00763); test: Human ACC2 enzyme assay, Assay A2 (HTRF ADP immunoassay);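 further: ADP generated by ACC2 quantified via competitive time-resolved FRET between europium cryptate anti-ADP antibody and d2-tagged ADP, enzyme kept in linear range near 0.6 ng/µl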
Chain of acetyl-CoA carboxylase 2 (ACC2) (O00763 39-2458 limits assumed): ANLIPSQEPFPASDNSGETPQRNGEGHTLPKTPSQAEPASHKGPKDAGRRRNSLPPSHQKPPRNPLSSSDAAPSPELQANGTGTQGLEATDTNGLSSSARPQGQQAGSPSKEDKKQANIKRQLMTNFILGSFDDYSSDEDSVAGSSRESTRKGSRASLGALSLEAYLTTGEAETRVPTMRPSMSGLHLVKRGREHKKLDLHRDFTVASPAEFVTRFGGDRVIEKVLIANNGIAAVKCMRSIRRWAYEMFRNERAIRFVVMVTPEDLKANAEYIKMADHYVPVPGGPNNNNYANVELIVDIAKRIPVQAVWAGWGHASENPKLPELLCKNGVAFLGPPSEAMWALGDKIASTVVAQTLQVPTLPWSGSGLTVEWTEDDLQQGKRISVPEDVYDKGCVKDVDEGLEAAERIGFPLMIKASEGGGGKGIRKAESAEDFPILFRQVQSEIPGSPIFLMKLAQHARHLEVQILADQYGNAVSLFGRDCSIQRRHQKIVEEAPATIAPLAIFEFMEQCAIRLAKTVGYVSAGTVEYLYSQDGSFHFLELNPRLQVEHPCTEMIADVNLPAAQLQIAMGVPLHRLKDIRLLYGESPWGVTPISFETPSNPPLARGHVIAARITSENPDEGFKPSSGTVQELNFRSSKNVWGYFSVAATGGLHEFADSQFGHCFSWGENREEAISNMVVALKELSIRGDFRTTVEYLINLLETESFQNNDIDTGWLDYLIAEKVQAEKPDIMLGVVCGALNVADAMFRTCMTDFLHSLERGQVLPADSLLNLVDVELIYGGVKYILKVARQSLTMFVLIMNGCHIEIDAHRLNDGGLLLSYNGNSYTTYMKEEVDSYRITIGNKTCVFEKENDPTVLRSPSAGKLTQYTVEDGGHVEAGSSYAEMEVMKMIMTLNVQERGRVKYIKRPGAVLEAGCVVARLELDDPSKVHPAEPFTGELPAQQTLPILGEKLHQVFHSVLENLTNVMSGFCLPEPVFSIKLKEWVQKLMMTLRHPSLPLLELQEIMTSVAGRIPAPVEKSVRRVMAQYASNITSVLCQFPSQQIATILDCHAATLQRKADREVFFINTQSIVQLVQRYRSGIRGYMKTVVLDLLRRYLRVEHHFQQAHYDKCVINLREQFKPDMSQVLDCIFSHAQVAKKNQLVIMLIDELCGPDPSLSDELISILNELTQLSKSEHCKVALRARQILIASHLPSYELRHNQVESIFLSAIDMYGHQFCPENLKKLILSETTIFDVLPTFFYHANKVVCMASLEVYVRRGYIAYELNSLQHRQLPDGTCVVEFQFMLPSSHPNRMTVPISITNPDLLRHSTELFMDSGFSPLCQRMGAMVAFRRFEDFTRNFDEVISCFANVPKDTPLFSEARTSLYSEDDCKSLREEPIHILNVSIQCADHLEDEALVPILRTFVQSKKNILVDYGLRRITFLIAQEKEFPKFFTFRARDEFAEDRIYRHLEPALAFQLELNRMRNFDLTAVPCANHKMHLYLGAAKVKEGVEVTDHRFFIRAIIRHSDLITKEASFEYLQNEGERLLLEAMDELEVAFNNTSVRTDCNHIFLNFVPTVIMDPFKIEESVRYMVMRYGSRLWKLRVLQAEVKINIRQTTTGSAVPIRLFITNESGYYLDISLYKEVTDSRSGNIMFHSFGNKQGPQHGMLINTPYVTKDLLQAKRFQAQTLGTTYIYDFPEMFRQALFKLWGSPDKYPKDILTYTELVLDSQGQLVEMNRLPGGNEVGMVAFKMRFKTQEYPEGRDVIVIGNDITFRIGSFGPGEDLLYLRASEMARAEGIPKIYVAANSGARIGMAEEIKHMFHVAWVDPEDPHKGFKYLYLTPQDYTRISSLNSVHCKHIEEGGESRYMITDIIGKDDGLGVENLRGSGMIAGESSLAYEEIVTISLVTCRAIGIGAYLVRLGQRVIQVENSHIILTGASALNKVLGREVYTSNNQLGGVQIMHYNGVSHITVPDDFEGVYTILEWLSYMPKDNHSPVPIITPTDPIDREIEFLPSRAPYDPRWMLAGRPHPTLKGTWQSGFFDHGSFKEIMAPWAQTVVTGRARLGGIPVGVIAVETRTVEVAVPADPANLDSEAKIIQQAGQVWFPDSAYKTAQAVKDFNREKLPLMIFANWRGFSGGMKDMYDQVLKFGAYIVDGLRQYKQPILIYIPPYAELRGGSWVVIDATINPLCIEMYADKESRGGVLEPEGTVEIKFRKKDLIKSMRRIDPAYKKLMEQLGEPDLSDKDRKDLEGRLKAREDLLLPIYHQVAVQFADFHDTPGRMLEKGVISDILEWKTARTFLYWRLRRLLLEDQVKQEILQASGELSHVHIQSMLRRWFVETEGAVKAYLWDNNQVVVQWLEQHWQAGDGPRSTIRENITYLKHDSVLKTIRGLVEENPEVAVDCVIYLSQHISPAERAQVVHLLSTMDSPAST
Protocol: The inhibitory activity of the substances of this invention with regard to acetyl-CoA carboxylase 2 (ACC2) was measured using the ACC2 assay described in the paragraphs below. The basic principle of the assay is the measurement of adenosine diphosphate (ADP), which is formed as a by-product, by means of an HTRF®-based competitive immunoassay (HTRF=Homogeneous Time Resolved Fluorescence).
The amount of complex of d2-labelled ADP and europium cryptate-labelled anti-ADP antibody was then determined by measuring the resonance energy transfer of europium cryptate to d2.

[5] = MCF7, Table 7, 96-hour incubation
[6] = Assay B1, read-out: ACC 1 (=B1) IC50
[7] = MCF7, 10 mg/kg oral, MCF-7 tumour in nude mice, vs vehicle

Compound	pIC50 [1]	inhibition in vivo at 10 mg/kg ([2]; MCF7, po, 10 mg/kg, vs Vehicle)	pIC50 (MCF7; [5])	pIC50 [3]	other results
Cc1ccc(-c2ccc(Cl)cc2)c(C)c1C1=C(O)C2(CCOCC2)NC1=O [1-1, 3-(4′-chloro-2,4-dimethylbiphenyl-3-yl)-4-hydroxy-8-oxa-1-azaspiro[4.5]dec-3-en-2-one]	6.61	39%	6.10	< 4.70	pIC50 (MDA-MB-436; MDA-MB-436, 96-hour incubation): 6.85; pIC50 (MDA-MB-468; MDA-MB-468, 96-hour incubation): 6.56; pIC50 (HCC-1937; 96-hour incubation): 5.97; pIC50 (Miapaca; 96-hour incubation): 6.08
Cc1ccc(-c2ccc(Cl)cc2)cc1C1=C(O)C2(CCOCC2)NC1=O [1-6, 3-(4′-chloro-4-methylbiphenyl-3-yl)-4-hydroxy-8-oxa-1-azaspiro[4.5]dec-3-en-2-one]	6.88	68%	6.68	5.03	pIC50 (MDA-MB-436; MDA-MB-436, 96-hour incubation): 6.50; pIC50 (MDA-MB-468; MDA-MB-468, 96-hour incubation): 6.26; pIC50 (HCC-1937; 96-hour incubation): 6.06; pIC50 (Miapaca; 96-hour incubation): 5.90
COC1CCC2(CC1)NC(=O)C(c1cc(-c3ccc(Cl)cc3)c(C)cc1C)=C2O (stereo not drawn) [1-7, 3-(4′-chloro-4,6-dimethylbiphenyl-3-yl)-4-hydroxy-8-methoxy-1-azaspiro[4.5]dec-3-en-2-one]	5.84	89%	7.24	6.48	
COC1CCC2(CC1)NC(=O)C(c1cc(-c3ccc(Cl)cc3)ccc1Cl)=C2O (stereo not drawn) [1-11, 3-(4,4′-dichlorobiphenyl-3-yl)-4-hydroxy-8-methoxy-1-azaspiro[4.5]dec-3-en-2-one]	6.80	87%	6.91	5.35	
Cc1ccc(-c2ccc(Cl)cc2)cc1C1=C(O)C2(CCC(C)(C)CC2)NC1=O [1-20, 3-(4′-chloro-4-methylbiphenyl-3-yl)-4-hydroxy-8,8-dimethyl-1-azaspiro[4.5]dec-3-en-2-one]		87%	7.40	5.95	pIC50 [1, 6]: 6.64
Cc1ccc(-c2ccc(Cl)cc2)cc1C1=C(O)C2(CCC(C(C)C)CC2)NC1=O (stereo not drawn) [1-24, 3-(4′-chloro-4-methylbiphenyl-3-yl)-4-hydroxy-8-(propan-2-yl)-1-azaspiro[4.5]dec-3-en-2-one]		91%	7.57	6.29	pIC50 [1, 6]: 6.64
O=C1N[C@]2(CC[C@@H](OCC(F)(F)F)CC2)C(O)=C1c1cc(-c2ccc(Cl)cc2)ccc1Cl [1-29, (5s,8s)-3-(4,4′-dichlorobiphenyl-3-yl)-4-hydroxy-8-(2,2,2-trifluoroethoxy)-1-azaspiro[4.5]dec-3-en-2-one]	6.82	93%	7.49	5.58	pIC50 (KM12): 6.88
Cc1ccc(-c2ccc(Cl)cc2)c(C)c1C1=C(O)[C@]2(CC[C@H](OCC(F)(F)F)CC2)NC1=O [1-30, (5s,8s)-3-(4′-chloro-2,4-dimethylbiphenyl-3-yl)-4-hydroxy-8-(2,2,2-trifluoroethoxy)-1-azaspiro[4.5]dec-3-en-2-one]		82%	7.32	6.01	pIC50 [1, 6]: 6.32
Cc1ccc(-c2ccc(Cl)cc2)cc1C1=C(O)C2(CCC(OCC(F)(F)F)CC2)NC1=O (stereo not drawn) [1-33, 3-(4′-chloro-4-methylbiphenyl-3-yl)-4-hydroxy-8-(2,2,2-trifluoroethoxy)-1-azaspiro[4.5]dec-3-en-2-one]		88%	7.57	5.70	pIC50 [1, 6]: 6.63; pIC50 (MDA-MB-436; MDA-MB-436, 96-hour incubation): 7.15; pIC50 (MDA-MB-468; MDA-MB-468, 96-hour incubation): 7.13; pIC50 (HCC-1937; 96-hour incubation): 6.97; pIC50 (Miapaca; 96-hour incubation): 6.71
Cc1ccc(-c2ccc(F)c(F)c2)cc1C1=C(O)C2(CCC3(CCCO3)CC2)NC1=O (stereo not drawn) [1-35, 11-(3′,4′-difluoro-4-methylbiphenyl-3-yl)-12-hydroxy-1-oxa-9-azadispiro[4.2.4.2]tetradec-11-en-10-one]	6.41	31%	7.03	5.16	
COCC1CCC2(CC1)NC(=O)C(c1c(C)ccc(-c3ccc(Cl)cc3)c1C)=C2O (stereo not drawn) [1-53, 3-(4′-chloro-2,4-dimethylbiphenyl-3-yl)-4-hydroxy-8-(methoxymethyl)-1-azaspiro[4.5]dec-3-en-2-one]	6.61	43%	7.15	6.20	
COCC1CCC2(CC1)NC(=O)C(c1cc(-c3ccc(Cl)cc3)ccc1Cl)=C2O (stereo not drawn) [1-54, 3-(4,4′-dichlorobiphenyl-3-yl)-4-hydroxy-8-(methoxymethyl)-1-azaspiro[4.5]dec-3-en-2-one]	6.80	61%	7.06	5.87	
CO[C@]1(C)CC[C@]2(CC1)NC(=O)C(c1c(C)ccc(-c3ccc(Cl)cc3)c1C)=C2O [1-87, (5r,8r)-3-(4′-chloro-2,4-dimethylbiphenyl-3-yl)-4-hydroxy-8-methoxy-8-methyl-1-azaspiro[4.5]dec-3-en-2-one]	6.42	71%		4.98	pIC50 (recombinant human ACC1): 6.27; pIC50 [4]: 5.14
COC[C@H]1CC[C@]2(CC1)NC(=O)C(c1cc(-c3ccc(F)c(F)c3)ccc1C)=C2O [1-112, (5s,8s)-3-(3′,4′-Difluoro-4-methylbiphenyl-3-yl)-4-hydroxy-8-(methoxymethyl)-1-azaspiro[4.5]dec-3-en-2-one]	6.70		7.10	5.07	pIC50 (KM12): 6.76; pIC50 (recombinant human ACC1): 6.78; pIC50 [4]: 5.41
CO[C@H]1CC[C@]2(CC1)NC(=O)C(c1cc(-c3ccc(Cl)cc3)ccc1Cl)=C2O [1-120, (5s,8s)-3-(4,4′-Dichlorobiphenyl-3-yl)-4-hydroxy-8-methoxy-1-azaspiro[4.5]dec-3-en-2-one]	6.84		7.15	5.65	pIC50 (KM12): 6.15; pIC50 (recombinant human ACC1): 6.60; pIC50 [4]: 5.89
Cc1cc(C)c(-c2ccc(Cl)cc2)cc1C1=C(O)[C@]2(CC[C@@]3(CCCO3)CC2)OC1=O [2-30, (5r,8s)-3-(4′-chloro-4,6-dimethylbiphenyl-3-yl)-4-hydroxy-1,9-dioxadispiro[4.2.4.2]tetradec-3-en-2-one]	6.16			6.61	inhibition in vivo at 10 mg/kg [2, 7]: 36%; pIC50 (MCF7; MCF7 cells): 7.19; pIC50 (MDA-MB-436; MDA-MB-436 cells): 6.94; pIC50 (MDA-MB-468; MDA-MB-468 cells): 6.82; pIC50 (HCC-1937; HCC-1937 cells): 5.82; pIC50 (Miapaca; MiaPaca cells): 6.59
Cc1ccc(-c2ccc(Cl)cc2)cc1C1=C(O)C2(CCC(OCC(F)(F)F)CC2)OC1=O (stereo not drawn) [2-33, 3-(4′-chloro-4-methylbiphenyl-3-yl)-4-hydroxy-8-(2,2,2-trifluoroethoxy)-1-oxaspiro[4.5]dec-3-en-2-one]				5.30	pIC50 ([1]; Assay B1, ADP-Glo, read-out: ACC 1 (=B1) IC50): 6.64; inhibition in vivo at 10 mg/kg [2, 7]: 39%; pIC50 (MCF7; MCF7 cells): 6.61
